Where a name gives a salt, the structure may show the parent alone.
Key:
HNT2RS [1] = assay: GTP sensitivity of [3H]NT binding, CHO-K1 membranes stably expressing HNT2RS; design: species or system human
Procedure: GTP sensitivity. These radioligand binding assays were performed in 96-well microtiter plates using 1×binding buffer (50 mM HEPES, pH 7.4, 10 mM MgCl2, 0.4% BSA, pH 7.4) containing protease inhibitors (5 μg/ml leupeptin, 5 μg/ml aprotinin, 100 μg/ml bacitracin, and 100 μg/ml benzamidine). […] Wells A1-6 were repeated for each membrane preparation to be tested for GTP sensitivity. Binding reactions were initiated by adding 5-100 μg of membrane protein in a 170 μl volume. Final reaction volume was 200 μl/well. The microtiter plate was placed on a rotary shaker at 200 rpm and incubated at room temperature for 2 hours. Free radioligand was separated from bound ligand by rapid filtration through a glass fiber (GF/C) filter plate pretreated with 0.3% polyethyleneimine using a Packard cell harvester. The filter plates were then washed several times with cold (4° C.) binding buffer lacking BSA. After the filter plates were dried in a 37° C. incubator for 2 hours, 25 μl Microscint scintillation fluid (Packard) was added to each well and the plate was counted in a Packard Top Count scintillation counter.

HNT2R = molecular target: T1, HNT2R (Homo sapiens, UniProt O95665); assay: GTP sensitivity of [3H]NT binding, CHO-K1 membranes stably expressing HNT2R
T1 construct: The HindIII and XbaI digested full-length receptor cDNAs were inserted into the pRC/CMV (Invitrogen) vector; expressed in transfected cells; host or cells: GH4C1 (rat pituitary) membranes for A6 and A8; CHO-K1 membranes for A9; SK-N-MC whole cells for A11
T1 sequence (O95665 whole entry): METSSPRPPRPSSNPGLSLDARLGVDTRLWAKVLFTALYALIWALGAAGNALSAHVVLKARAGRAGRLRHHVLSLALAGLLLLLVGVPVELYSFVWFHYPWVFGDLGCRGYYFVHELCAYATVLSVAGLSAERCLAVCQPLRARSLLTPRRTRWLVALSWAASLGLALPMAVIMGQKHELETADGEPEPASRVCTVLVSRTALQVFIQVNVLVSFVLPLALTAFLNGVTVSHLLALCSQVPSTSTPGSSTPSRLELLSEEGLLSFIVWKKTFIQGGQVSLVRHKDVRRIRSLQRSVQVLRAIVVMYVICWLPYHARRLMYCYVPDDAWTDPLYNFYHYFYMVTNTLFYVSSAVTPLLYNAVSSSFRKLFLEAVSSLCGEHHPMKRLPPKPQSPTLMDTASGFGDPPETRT

H1-histamine receptors = H1-histamine receptors (Homo sapiens, UniProt P35367); settings: cited from earlier work
Chain of H1-histamine receptors (P35367 whole entry): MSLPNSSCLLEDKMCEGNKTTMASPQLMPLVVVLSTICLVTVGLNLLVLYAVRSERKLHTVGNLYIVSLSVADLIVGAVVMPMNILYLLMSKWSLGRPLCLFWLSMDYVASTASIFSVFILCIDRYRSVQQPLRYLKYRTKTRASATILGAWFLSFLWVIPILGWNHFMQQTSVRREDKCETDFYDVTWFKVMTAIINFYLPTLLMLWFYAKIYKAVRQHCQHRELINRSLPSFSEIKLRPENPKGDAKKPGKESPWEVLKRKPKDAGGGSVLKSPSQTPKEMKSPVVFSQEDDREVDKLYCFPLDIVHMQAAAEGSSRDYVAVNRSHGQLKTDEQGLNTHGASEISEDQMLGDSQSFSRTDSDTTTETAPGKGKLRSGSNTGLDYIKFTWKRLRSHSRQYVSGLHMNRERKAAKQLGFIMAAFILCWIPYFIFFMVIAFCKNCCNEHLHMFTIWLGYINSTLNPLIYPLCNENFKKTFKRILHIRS

[2] = test system: neurotensin receptor subtypes NT1R, NT2R, NT3R; settings: cited from earlier work
fasted ob/ob males = assay: Effect of AcNT(8-13) on appetite / food consumption in mouse models of obesity; type: in vivo
From the text: (§1) Obesity is associated with decreased metabolic energy expenditure and increased metabolic efficiency. Increasing metabolic energy expenditure (thermogenesis) is a desirable characteristic of anti-obesity targets.

HNT2RL = molecular target: T2, HNT2RL (Homo sapiens, UniProt O95665); assay: Competition of [3H]neurotensin binding, membranes from GH4C1 cells stably expressing HNT2RL; settings: HNT2RL (long form), FIG. 1A
T2 construct: The HindIII and XbaI digested full-length receptor cDNAs were inserted into the pRC/CMV (Invitrogen) vector; expressed in transfected cells; host or cells: GH4C1 (rat pituitary) membranes for A6 and A8; CHO-K1 membranes for A9; SK-N-MC whole cells for A11
T2 sequence (O95665 whole entry): as the sequence (O95665 whole entry) above
Procedure: (§2) A: Binding to membranes from GH4C1 cells stably expressing HNT2RL. B: Binding to membranes from GH4C1 cells stably expressing HNT2RS.
The adherent cells were removed from the plates with PBS and 2 mM EDTA, pelleted by centrifugation at 1,500×g for 10 minutes at 4° C., and resuspended in ice cold homogenization buffer (1 mM sodium bicarbonate, 1 mM EDTA, 1 mM EGTA, pH 7.2) containing 1×protease inhibitors (5 μg/ml leupeptin, 5 μug/ml aprotinin, 100 μg/ml bacitracin, and 100 μg/ml benzamidine). After 10 minutes on ice, the cells were lysed by dounce homogenizing for 20 strokes in a glass/glass homogenizer. The cell lysate was centrifuged at 1,500×g for 10 minutes at 4° C. to remove the nuclei and cell debris and the supernatant containing the cell membranes were harvested by centrifugation at 20,000×g for 30 minutes at 4° C. The membrane pellet was resuspended in 1×homogenization buffer containing 1×protease inhibitors and once again pelleted. […]
The microtiter plate was placed on a rotary shaker at 200 rpm and incubated at room temperature for 2 hours. […] After the filter plates were dried in a 37° C. incubator for 2 hours, 25 μl Microscint scintillation fluid (Packard) was added to each well and the plate was counted in a Packard Top Count scintillation counter.

HNT2RS [3] = assay: Competition of [3H]neurotensin binding, membranes from GH4C1 cells stably expressing HNT2RS; design: species or system human; settings: HNT2RS (short form), FIG. 1B
Procedure: as §2
The adherent cells were removed from the plates with PBS and 2 mM EDTA, pelleted by centrifugation at 1,500×g for 10 minutes at 4° C., and resuspended in ice cold homogenization buffer (1 mM sodium bicarbonate, 1 mM EDTA, 1 mM EGTA, pH 7.2) containing 1×protease inhibitors (5 μg/ml leupeptin, 5 μug/ml aprotinin, 100 μg/ml bacitracin, and 100 μg/ml benzamidine). After 10 minutes on ice, the cells were lysed by dounce homogenizing for 20 strokes in a glass/glass homogenizer. The cell lysate was centrifuged at 1,500×g for 10 minutes at 4° C. to remove the nuclei and cell debris and the supernatant containing the cell membranes were harvested by centrifugation at 20,000×g for 30 minutes at 4° C. The membrane pellet was resuspended in 1×homogenization buffer containing 1×protease inhibitors and once again pelleted. The membrane pellet was then resuspended at 1-5 mg/ml in 25 mM Tris, pH 7.4 and either directly used in binding assays or frozen (−80° C.) in small aliquots for future use.
Radioligand binding assays: competition binding. All radioligand binding assays were performed in 96-well microtiter plates using 1×binding buffer (50 mM HEPES, pH 7.4, 10 mM MgCl2, 0.2% BSA, pH 7.4) containing protease inhibitors (5 μg/ml leupeptin, 5 μmg/ml aprotinin, 100 μg/ml bacitracin, and 100 μg/ml benzamidine). […] Binding reactions were initiated by adding 5-100 μg of membrane protein in a 170 μl volume. Final reaction volume was 200 μl/well.
The microtiter plate was placed on a rotary shaker at 200 rpm and incubated at room temperature for 2 hours. Free radioligand was separated from bound ligand by rapid filtration through a glass fiber (GF/C) filter plate pretreated with 0.3% polyethyleneimine for 30 minutes) using a Packard cell harvester. […] After the filter plates were dried in a 37° C. incubator for 2 hours, 25 μl Microscint scintillation fluid (Packard) was added to each well and the plate was counted in a Packard Top Count scintillation counter.

[4] = Acute metabolic responses to AcNT(8-13): lipolysis, oxygen consumption; type: in vivo; settings: administered acutely
From the text: as §1

In the case of `Nc1nc2c(ncn2[C@@H]2O[C@H](COP(=O)(O)OP(=O)(O)OP(O)(O)=S)[C@@H](O)[C@H]2O)c(=O)[nH]1` [GTPγS], the “% Decrease in [3H]NT Bound in Presence of 100 μM GTPγS” value (HNT2RS [1]) is reported as 35.3% and the “% Decrease in [3H]NT Bound in Presence of 100 μM GTPγS” value (HNT2R) is reported as 51.5%.

For `c1ccncc1` [Pyridine, pyridine], the “binding to H1-histamine receptors” value (H1-histamine receptors) is given as “high affinity binding”, the “binding to NTR subtypes” value [2] is given as “not to any NTR subtypes” and the “block of AcNT(8-13)-mediated appetite suppression” value (fasted ob/ob males; antihistamine at 1 mg/kg) is given as “did not block”.

With `COc1cccc(OC)c1-c1cc(C(=O)NC2(C(=O)O)C3CC4CC(C3)CC2C4)nn1-c1ccnc2cc(Cl)ccc12` (centres unmarked) [SR48692] the “competition of [3H]neurotensin binding” value (HNT2RL) was “competed at a concentration about two orders of magnitude higher” and the “competition of [3H]neurotensin binding” value (HNT2RS [3]) was “competed at a concentration about two orders of magnitude higher”.

In the case of `COc1cccc(OC)c1-c1cc(C(=O)NC2(C(=O)O)C3CC4CC(C3)CC2C4)nn1-c1ccc(C(=O)N(C)CCCN(C)C)cc1C(C)C.Cl` (centres unmarked) [SR142948], the “affinity for the NT1R and NT2R subtypes” value [2] is given as “comparable affinity”.

In the case of `C[C@@H]1CN([C@H]2CC[C@](C#N)(c3ccc(F)cc3)CC2)CC[C@]1(C(=O)O)c1ccccc1` [levocabastine, (−)-{3S-[1(cis)-3α4β]}-1-{4-cyano-4-(4-fluoro-phenyl)-cyclohexyl)}-3-methyl-4-phenyl-4-piperidene-carboxylic acid monohydrochloride], the “binding to the NT2R subtype” value [2] is given as “high affinity”, the “selectivity for the NT2R over the NT1R and NT3R subtypes” value [2] is given as 1000 fold and the “reversal of the suppression of food intake mediated by AcNT(8-13)” value (fasted ob/ob males; animals pretreated with antagonist, 50 μg/kg AcNT(8-13)) is given as “completely reversed”.

In the case of “AcNT(8-13): N-acetylated form of the carboxyl terminal 6 amino acids of neurotensin (8-13)”, the “competition of [3H]neurotensin binding” value (HNT2RS [3]) is given as “equally well”, the “binding affinity compared with the 13 amino acid form of neurotensin” value [2] is given as “identical” and the food consumption (fasted ob/ob males; AcNT(8-13) i.p., fasted ob/ob males) is given as “biphasic suppression of food consumption”. For the same molecule, the “suppression of food consumption” value (fasted ob/ob males; administered acutely) was 40-60%, the “lipolytic effects (NEFAs and glycerol)” value [4] was “elevated NEFAs and glycerol” and the oxygen consumption [4] was “increased”.

For “NT(9-13): neurotensin (9-13) fragment, a neurotensin receptor binding partner”, the “competition of [3H]neurotensin binding” value (HNT2RS [3]) was “bound with lower affinity”.

For “[^3H]NT: tritiated neurotensin radioligand (New England Nuclear, 100 Ci/mmol)”, the “Specific [3H]NT Bound in Presence of 100 μM GTPγS” value (HNT2RS [1]) was 451 cpm and the “Specific [3H]NT Bound” value (HNT2RS [1]; no GTPγS) was 697 cpm.
